This is an account of results in patent US11059878B2, “Therapeutic targeting of SET1B/compass pathway for treating cancers” (Northwestern University, priority 2016, dated 2021).

The conditions of data set [1]: mice treated with 50 mg/kg AdipoRon; cited from earlier work.
A further data set concerns SET1B. As to the kind of experiment: SET1B protein level by western blot after AdipoRON treatment. The class given is cell-based, human. The note with it: MDA-MB-231 cells, various concentrations for 24 hours. As to the method: FIG. 13. Depletion of AdipoR1 by CRISPR-CAS9 partially rescued cell death induced by SET1B depletion. A) Design of CRIPSR-Cas9 targeting ADIPOR1 gene locus. B) PCR was performed for genotyping of AdipoR1 wildtype and deleted cells. C) Total RNA was extracted from AdipoR1-WT and AdipoR1-KO cells and subjected to RNA-seq, three replicates. Representative tracks of AdipoR1 gene are shown. D) SET1B was further knocked down in ADIPOR1-WT and ADIPOR1-KO cells, respectively. After puromycin selection for 48 hours, 1×10^5 cells were seeded in 6-well plate, the cell viability of SET1B knocked down cells was determined by cell counting. E) The cells from panel C were seeded in 6-well plate (1×10^4) and grown for one week before crystal violet staining. F) Quantification of crystal violet staining was determined as described in materials section. n=4, Student's t test was used for statistical analysis. **P<0.01; *P<0.05. Error bars represent sd. […] H) Cell morphology of GFP or GFP-AdipoR1 inducible cell lines after DMSO or Dox treatment, n=3. I) MCF7 cells were seeded in 6-well plates at the concentration of 500 cells per well. The cells were treated with either DMSO or AdipoRON (10 μM) for three weeks, and the colonies were stained with crystal violet. J) MDA-MB-231 cells were treated with various concentrations of AdipoRON for 24 hours. The protein level of SET1B was determined by western blot. […]
In general terms: A western blot detects proteins with antibodies after separation by electrophoresis.

For the next data set, the system named is LM2 cells. Put plainly: LM2 cell fat pad xenograft in nude mice, treatment assay. The class given is in vivo. As to the method: (§1) FIG. 6. Targeting AdipoR1 signaling in human TNBC. A) MDA-MB-231, MDA-MB-468 and MCF7 cells were infected with lentiviruses inducibly expressing either GFP or GFP-ADIPOR1. After neomycin selection, the stably transfected cells were treated with DMSO or doxycycline (DOX). The induced GFP or GFP-AdipoR1 was determined by western blot in three cell lines, n=3. B) The proliferation ability of GFP or GFP-ADIPOR1 inducible cell lines were determined by cell counting, n=3, Student's t test was used for statistical analysis. **P<0.01; *P<0.05. Error bars represent sd. C) The GFP or GFP-ADIPOR1 inducible cell lines were seeded in 6-well plates at the concentration of 4×10^4 living cells per well. The cells were then treated with DMSO or doxycycline. The cell survival was shown six days after doxycycline treatment by crystal violet staining. D) Quantification of crystal violet staining was determined as described in materials section. n=4, Student's t test was used for statistical analysis. **P<0.01; *P<0.05. Error bars represent sd. E) MDA-MB-231, MDA-MB-468, and LM2 cells were seeded in 6-well plates at the concentration of 200 cells per well. […] F) Quantification of crystal violet staining was determined as described in materials section. n=4, Student's t test was used for statistical analysis. **P<0.01; *P<0.05. […] They were treated with either PBS or AdipoRon (50 mg/kg) for 10 times, and the tumor size (G) and animal survival (H) was monitored. Tumor growth was measured two weeks after inoculation (n=7). […]
FIG. 14. […] They were treated with either PBS or AdipoRon (50 mg/kg and 100 mg/kg, respectively) for 10 times, and the tumor size was monitored. Tumor growth was measured two weeks after inoculation (n=8). […]
Animal experiments. […] Tumor growth was monitored every other day two weeks after inoculation. […] They were treated with either PBS or AdipoRon (50 mg/kg) for 10 times, and the tumor size (G) and animal survival (H) was monitored. Tumor growth was measured two weeks after inoculation.

The conditions of data set [2]: cited from earlier work.
The subject of data set [3] is MDA-MB-231, MDA-MB-468, and LM2 cells. Put plainly: Colony formation of triple-negative breast cancer lines, crystal violet staining. The class given is cell-based, human. As to the method: as §1, with “sd.” for “sd. E) MDA-MB-231, MDA-MB-468, and LM2 cells were seeded in 6-well plates at the concentration of 200 cells per well.”

Consider `O=C(COc1ccc(C(=O)c2ccccc2)cc1)NC1CCN(Cc2ccccc2)CC1` [AdipoRon], for which the plasma concentration in data set [1] is 11.6 µM. In addition, the SET1B protein level entry in the data set on SET1B is “does not affect”. The “drug effect (tumor size) by intraperitoneal injection” value in the data set on LM2 cells (intraperitoneal injection, 50 mg/kg and 100 mg/kg, 10 times) is “consistent result”. Also, the “tumor size / tumor growth” value with LM2 cells (oral 50 mg/kg, started 12 days after transplantation) is listed as “significantly reduced”. In addition, the “animal survival / lifespan” value with LM2 cells (oral 50 mg/kg, started 12 days after transplantation, 50 mg/kg) was “significantly increased”. Further, the toxicity in vivo entry in data set [2] is given as “low toxicity”. Moreover, in data set [3] (10 μM), the “anti-tumor effect in vitro” value was “dramatic anti-tumor effect”. Moreover, the colony formation ability result in data set [3] (AdipoRON 10 μM for three weeks, multiple triple-negative breast cancer lines, 200 cells per well) was “significantly inhibited”.
